Experimental data taken from patent publication EP0812829A1, “Substituted imidazoles as modulators of multi-drug resistance” (ONTOGEN CORPORATION, priority 1996, dated 1997).
Structures can show the parent of a compound that is named as a salt.

Assays:
[1] = tested on: CEM/VLB1000 Cells; assay: Enhancement of 3H-vinblastine accumulation; type: cell-based; settings: midpoint (EC50) of minimum and maximum increase in accumulation of 3H-vinblastine, 3H-vinblastine 550 nM, 3 hours at 37°C, read-out: [^3H]VLB Accumulation (µM) CEM/VLB1000 Cells
Description: Enhancement of ^3H-vinblastine accumulation was also measured in the cell line. Corning Easy-Wash 96 well plates were pretreated with PBS and 1% BSA for 60 minutes and then dried. CEM/VLB1000 cells were seeded at 2 x 10^5, 40 µL volume. Plates were incubated at 37°C for 30-60 minutes prior to use. The reference reversing agent, verapamil, or the compound of the present invention was added to the well followed by addition of media containing ^3H-vinblastine (final concentration = 550 nM). Plates were allowed to incubate for 3 hours at 37°C. Cells were harvested onto pretreated Wallace filtermats B (pretreated overnight with 0.1% polyethyleneimine) using a TomTek harvester-96. After filtering, the filtermats were allowed to dry completely. Meltix B scintillant was then added to the filtermats. The filters were then placed in a 90°C oven for approximately 3-5 minutes and then removed. Scintillant was allowed to solidify on the filtermats. Filtermats were then placed in sample bags and read on a Wallace BetaPlate scintillation counter. The effect of compounds of the present invention in the cytotoxicity potentiation assays and vinblastine (VLB) accumulation assay is given in the Table below: […]

[2] = tested on: CEM/VLB1000 Cells; assay: Cytotoxicity potentiation assay (alamar blue), vinblastine in CEM/VLB1000 cells; settings: read-out: Cytotoxicity Potentiation (µM) CEM/VLB1000 Cells; midpoint (EC50) of minimum and maximum cytotoxicity induced by 5 µg/mL vinblastine and compound; 48 hours incubation, alamar blue 24 hours
Description: Multidrug-resistant cell lines are easily obtainable for in vitro determination of drug sensitization by compounds of the present invention. In vitro potentiation of antineoplastic cytotoxicity by the imidazole derivatives of the present invention was measured in both CEM/VLB1000 and SK/VLB1000 cell lines. The multidrug resistant cell lines-were obtained from Dr. Victor Ling, Ontario Cancer Institute, Toronto, Canada. The CEM/VLB 1000 cell line was maintained as a suspension in minimum essential medium supplemented with 10% of fetal bovine serum in a humidied atmosphere of 95% air and 5% CO2 while the SK/VLB 1000 cell line was maintained as adherent cells using the identical medium conditions as the CEM cells. The CEM/VLB 1000 cells were seeded at a density of 5 x 10^4 cells/well in a 96 well microtiter plate while the SK/VLB 1000 cell line was seeded at a density of 2,500 cells/well after trypsinization. Vinblastine (5 µg/mL, for the CEM cells) or Taxol (3 µg/mL, for the SK cells) and compound (0.01 to 50 µM) were added directly to the wells. After an incubation of 48 hours in presence of drug, alamar blue (B. Page et al., Int. J. Oncol. 3: 473-476, 1993) was added (20 µL to the 200 µL cell suspension) for a period of 24 hours after which the fluorescence (excitation = […], emission = […]) was read for each well using a "CytoFluor" microtiter fluorometer plate reader. This assay measures the minimal concentration of compound necessary to enhance the cytotoxicity (EC50) of vinblastine in the MDR cell line.

[3] = tested on: SK/VLB1000 Cells; assay: Cytotoxicity potentiation assay (alamar blue), Taxol in SK/VLB1000 cells; type: cell-based; settings: midpoint (EC50) of minimum and maximum cytotoxicity; method: Taxol 3 µg/mL for the SK cells (footnote: 5 µg/mL vinblastine); 48 hours incubation, alamar blue 24 hours
Description: In vitro potentiation of antineoplastic cytotoxicity by the imidazole derivatives of the present invention was measured in both CEM/VLB1000 and SK/VLB1000 cell lines. The multidrug resistant cell lines-were obtained from Dr. Victor Ling, Ontario Cancer Institute, Toronto, Canada. The CEM/VLB 1000 cell line was maintained as a suspension in minimum essential medium supplemented with 10% of fetal bovine serum in a humidied atmosphere of 95% air and 5% CO2 while the SK/VLB 1000 cell line was maintained as adherent cells using the identical medium conditions as the CEM cells. The CEM/VLB 1000 cells were seeded at a density of 5 x 10^4 cells/well in a 96 well microtiter plate while the SK/VLB 1000 cell line was seeded at a density of 2,500 cells/well after trypsinization. Vinblastine (5 µg/mL, for the CEM cells) or Taxol (3 µg/mL, for the SK cells) and compound (0.01 to 50 µM) were added directly to the wells. After an incubation of 48 hours in presence of drug, alamar blue (B. Page et al., Int. J. Oncol. 3: 473-476, 1993) was added (20 µL to the 200 µL cell suspension) for a period of 24 hours after which the fluorescence (excitation = 530 nM, emission = 590 nM) was read for each well using a "CytoFluor" microtiter fluorometer plate reader. This assay measures the minimal concentration of compound necessary to enhance the cytotoxicity (EC50) of vinblastine in the MDR cell line.

SMILES	EC50 [1] [µM]	EC50 [2] [µM]	EC50 [3] [µM]
Oc1ccc(-c2nc(-c3ccccc3)c(-c3ccccc3)n2-c2ccccc2)cc1 [Example 1, 2-(4-hydroxyphenyl)-1,4,5-triphenyl-imidazole trifluoroacetic acid salt]	20		
COc1ccc(-c2nc(-c3ccc(O)cc3)n(Cc3ccccc3)c2-c2ccc(OC)cc2)cc1 [Example 2, 1-benzyl-2-(4-hydroxyphenyl)-4,5-di-(4-methoxyphenyl)-imidazole trifluoroacetic acid salt]	2		
CN(C)c1ccc(-c2nc(-c3ccc(C(=O)O)cc3)[nH]c2-c2ccc(N(C)C)cc2)cc1 [Example 3, 2-(4-carboxyphenyl)-4,5-di-[4-(dimethylamino)-phenyl]-1(H)-imidazole]		10	
COC(=O)c1ccc(-c2nc(-c3ccc(N(C)C)cc3)c(-c3ccc(N(C)C)cc3)[nH]2)cc1 [Example 4, 4,5-di-[4-(dimethylamino)-phenyl]-2-[4-(methoxycarbonyl)-phenyl]-1(H)-imidazole]	5	0.3	1
CCCCCCn1c(-c2ccc(C(=O)O)cc2)nc(-c2ccc(N(C)C)cc2)c1-c1ccc(N(C)C)cc1 [Example 5, 2-(4-carboxyphenyl)-4,5-di-[4-(dimethylamino)-phenyl]-1-(n-hexyl)-imidazole]	12	3	10
CCCCCCn1c(-c2ccc(C(=O)OC)cc2)nc(-c2ccc(N(C)C)cc2)c1-c1ccc(N(C)C)cc1 [Example 6, 4,5-di-[4-(dimethylamino)-phenyl]-1-(n-hexyl)-2-[4-(methoxycarbonyl)-phenyl]-imidazole]		5	
CN(C)c1ccc(-c2nc(-c3ccc(/C=C/C(=O)O)cc3)[nH]c2-c2ccc(N(C)C)cc2)cc1 [Example 7, 2-[4-(trans-2-carboxyethenyl)-phenyl] -4,5-di-[4-(dimethylamino)-phenyl]-1(H)-imidazole]		10	
COC(=O)C=Cc1ccc(-c2nc(-c3ccc(N(C)C)cc3)c(-c3ccc(N(C)C)cc3)[nH]2)cc1 [Example 8, 4,5-di-[4-(dimethylamino)-phenyl]-2-{4-[trans-(2-methoxycarbonyl)-ethenyl]-phenyl}-1(H)-imidazole]	5	0.3	0.3
CN(C)c1ccc(-c2nc(-c3ccc(O)cc3)[nH]c2-c2ccc(N(C)C)cc2)cc1 [Example 9, 4,5-di-[4-(dimethylamino)-phenyl]-2-(4-hydroxyphenyl)-1(H)-imidazole]	20	10	10
CN(C)c1ccc(-c2nc(-c3ccc(O)cc3)n(CCc3ccccc3)c2-c2ccc(N(C)C)cc2)cc1 [Example 10, 4,5-di-[4-(dimethylamino)-phenyl]-2-(4-hydroxyphenyl)-1-(2-phenylethyl)-imidazole]	10	2	
CN(C)c1ccc(-c2nc(-c3ccc(C(=O)O)cc3)n(CCc3ccccc3)c2-c2ccc(N(C)C)cc2)cc1 [Example 11, 2-(4-carboxyphenyl)-4,5-di-[4-(dimethylamino)-phenyl]-1-(2-phenylethyl)-imidazole]		10	
CN(C)c1ccc(-c2nc(-c3ccc(/C=C/C(=O)O)cc3)n(CCc3ccccc3)c2-c2ccc(N(C)C)cc2)cc1 [Example 12, 2-[4-(trans-2-carboxyethenyl)-phenyl]-4,5-di-[4-(dimethylamino)-phenyl]-1-(2-phenylethyl)-imidazole]		10	
COC(=O)/C=C/c1ccc(-c2nc(-c3ccc(OC)cc3)c(-c3ccc(OC)cc3)n2CCCCCC(=O)OC)cc1 [Example 13, 4,5-di-(4-methoxyphenyl)-2-{4-[trans-(2-methoxycarbonyl)-ethenyl]-phenyl}-1-[5-(methoxycarbonyl)-n-pentyl)-imidazole]		0.6	
COc1ccc(-c2nc(-c3ccc(/C=C/c4ccccc4)cc3)n(CCCn3ccnc3)c2-c2ccc(OC)cc2)cc1 [Example 14, 2-(trans-4-stilbenyl)-1-[3-(imidazol-1-yl)-n-propyl]-4,5-di-(4-methoxyphenyl)-imidazole]		0.4	1
COC(=O)/C=C/c1ccc(-c2nc(-c3ccc(N(C)C)cc3)c(-c3ccc(N(C)C)cc3)n2CCCCCC(=O)OC)cc1 [Example 15, 4,5-di-[4-(dimethylamino)-phenyl]-2-{4-[trans-(2-methoxycarbonyl)-ethenyl]-phenyl}-1-[5-(methoxycarbonyl)-n-pentyl-]-imidazole]		0.6	5
CCCCCCn1c(-c2ccc(OCCCN(C)C)cc2)nc(-c2ccc(OC)cc2)c1-c1ccc(OC)cc1 [Example 16, 4,5-di-(4-methoxyphenyl)-2-{4-[3-(dimethylamino)-propyloxy]-phenyl}-1-(n-hexyl)-imidazole]		2	10
